Where “and” joins values, the source holds several entries; their conditions need not be identical. Identical values can stand only once.

This is an account of results in patent US20100285145A1, “GPR 119 MODULATORS” (PFIZER INC, priority 2009, published 2010).

This experiment deals with T1, human GPR119 (Homo sapiens, UniProt Q8TDV5).
T1 sequence (Q8TDV5 1-335): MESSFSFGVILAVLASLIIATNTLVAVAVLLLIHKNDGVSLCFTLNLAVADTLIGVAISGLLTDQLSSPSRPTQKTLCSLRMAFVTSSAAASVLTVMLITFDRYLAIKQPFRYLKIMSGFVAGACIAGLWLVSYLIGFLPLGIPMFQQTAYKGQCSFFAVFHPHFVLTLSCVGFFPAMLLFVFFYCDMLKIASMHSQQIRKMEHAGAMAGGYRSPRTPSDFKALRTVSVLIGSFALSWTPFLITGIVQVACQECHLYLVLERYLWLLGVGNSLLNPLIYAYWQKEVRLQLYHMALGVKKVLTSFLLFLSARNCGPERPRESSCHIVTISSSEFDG
The experiment is described as follows: GPR119 radioligand binding assay ([3H]-Compound A or B, membranes of HEK 293FT cells expressing hGPR119). Details: host or cells: HEK293-CRE beta-lactamase. To be noted: calculated from IC50 with Cheng-Prusoff; each line a separate determination. The protocol: HEK 293FT cells (Invitrogen, Carlsbad, Calif.) were grown in a shake flask in 293Freestyle medium (Invitrogen) supplemented with 50 microg/mL neomycin and 10 mM HEPES (37C, 8% carbon dioxide, shaking). The cells were centrifuged gently (approximately 500×g, 10 minutes) and the pellet resuspended in a mixture of Dulbecco's PBS (minus Mg++/−Ca++) supplemented with 18% fetal bovine serum (Sigma Aldrich) and P1 virus such that the multiplicity of infection (MOI) was 10 and the final cell density was 1.3×10^6/mL (total volume 2.5 liters). The cells were transferred to a 5 liter Wave Bioreactor Wavebag (Wave Technologies, Mass.) and incubated for 4 hours at 27 degrees Celsius (17 rocks/min, 7 degrees platform angle); at the end of the incubation period, an equal volume (2.5 liters) of 293Freestyle medium supplemented with 30 mM sodium butyrate (Sigma Aldrich) was added (final concentration=15 mM), and the cells were grown for 20 hours (37 degrees Celsius, 8% CO2 [0.2 liters/min}, 25 rocks/minute, 7 degrees platform angle). Cells were harvested via centrifugation (3,000×g, 10 minutes), washed once on DPBS (minus Ca++/Mg++), resuspended in 0.25M sucrose, 25 mM HEPES, 0.5 mM EDTA, pH 7.4 and frozen at −80 degrees Celsius.
The frozen cells were thawed on ice and centrifuged at 700×g (1400 rpm) for 10 minutes at 4 degrees Celsius. The cell pellet was resuspended in 20 mL phosphate-buffered saline, and centrifuged at 1400 rpm for 10 minutes. The cell pellet was then resuspended in homogenization buffer (10 mM HEPES (Gibco #15630), pH 7.5, 1 mM EDTA (BioSolutions, #BIO260-15), 1 mM EGTA (Sigma, #E-4378), 0.01 mg/mL benzamidine (Sigma #B 6506), 0.01 mg/mL bacitracin (Sigma #B 0125), 0.005 mg/mL leupeptin (Sigma #L 8511), 0.005 mg/mL aprotinin (Sigma #A 1153)) and incubated on ice for 10 minutes. Cells were then lysed with 15 gentle strokes of a tight-fitting glass Dounce homogenizer. The homogenate was centrifuged at 1000×g (2200 rpm) for 10 minutes at 4 degrees Celsius. The supernatant was transferred into fresh centrifuge tubes on ice. The cell pellet was resuspended in homogenization buffer, and centrifuged again at 1000×g (2200 rpm) for 10 minutes at 4 degrees Celsius after which the supernatant was removed and the pellet resuspended in homogenization buffer. This process was repeated a third time, after which the supernatants were combined, Benzonase (Novagen # 71206) and MgCl2 (Fluka #63020) were added to final concentrations of 1 U/mL and 6 mM, respectively, and incubated on ice for one hour. The solution was then centrifuged at 25,000×g (15000 rpm) for 20 minutes at 4 degrees Celsius, the supernatant was discarded, and the pellet was resuspended in fresh homogenization buffer (minus Benzonase and MgCl2). After repeating the 25,000×g centrifugation step, the final membrane pellet was resuspended in homogenization buffer and frozen at −80 degrees Celsius. The protein concentration was determined using the Pierce BCA protein assay kit (Pierce reagents A #23223 and B #23224).
Test compounds were serially diluted in 100% DMSO (J. T. Baker #922401). 2 microL of each dilution was added to appropriate wells of a 96-well plate (each concentration in triplicate). Unlabeled Compound A (or Compound B), at a final concentration of 10 microM, was used to determine non-specific binding. [^3H]-Compound A (or [^3H]-Compound B) was diluted in binding buffer (50 mM Tris-HCl, pH 7.5, (Sigma #T7443), 10 mM MgCl2 (Fluka 63020), 1 mM EDTA (BioSolutions #BIO260-15), 0.15% bovine serum albumin (Sigma #A7511), 0.01 mg/mL benzamidine (Sigma #B 6506), 0.01 mg/mL bacitracin (Sigma #B 0125), 0.005 mg/mL leupeptin (Sigma #L 8511), 0.005 mg/mL aprotinin (Sigma #A 1153)) to a concentration of 60 nM, and 100 microL added to all wells of 96-well plate (Nalge Nunc # 267245). […]

Broadly, the Ki is a dissociation constant, usually derived from enzyme kinetics or from competition with a known ligand. Regarding `Cc1c(OC2CCN(C(=O)OC(C)C)CC2)ncnc1N1CCc2cc(S(C)(=O)=O)ccc21` [Example 8, Isopropyl 4-({5-methyl-6-[5-(methylsulfonyl)-2,3-dihydro-1H-indol-1-yl]pyrimidin-4-yl}oxy)piperidine-1-carboxylate], the Ki was 273 nM and 338 nM.

`CCC1(OC(=O)N2C[C@H]3COC[C@@H](C2)[C@H]3Oc2ncnc(N3CCc4ncccc43)c2C)CC1` [Example 26, 1-Ethylcyclopropyl (9-anti)-9-{[6-(2,3-dihydro-1H-pyrrolo-[3,2-b]pyridin-1-yl)-5-methylpyrimidin-4-yl]oxy}-3-oxa-7-azabicyclo[3.3.1]nonane-7-carboxylate]: the inhibitory constant (Ki) is 40.5 nM and 22.2 nM.

`CC(C)OC(=O)N1CCC(Oc2cc(N3CCc4cc(C(=O)N(C)C)ccc43)ncn2)CC1` [Example 9, 4-[6-(5-Dimethylcarbamoyl-2,3-dihydroindol-1-yl)-pyrimidin-4-yloxy]-piperidine-1-carboxylic acid isopropyl ester]: the inhibition constant Ki was 58.8 nM and 45.2 nM.

Consider `CC(C)OC(=O)N1C[C@H]2COC[C@@H](C1)[C@H]2Oc1cc(N2CCc3cc(S(C)(=O)=O)ccc32)ncn1` [Example 1, Isopropyl 9-anti-({6-[5-(methylsulfonyl)-2,3-dihydro-1H-indol-1-yl]pyrimidin-4-yl}oxy)-3-oxa-7-azabicyclo[3.3.1]nonane-7-carboxylate], for which the Ki is 219 nM and 35.5 nM.

As to `Cc1c(O[C@H]2[C@@H]3COC[C@H]2CN(C(=O)OC2(C)CCC2)C3)ncnc1N1CCc2ncccc21` [Example 27, 1-Methylcyclobutyl (9-anti)-9-{[6-(2,3-dihydro-1H-pyrrolo[3,2-b]pyridin-1-yl)-5-methylpyrimidin-4-yl]oxy}-3-oxa-7-azabicyclo[3.3.1]nonane-7-carboxylate], the Ki was 20.8 nM and 13.8 nM.

In the case of `CC(C)(C)OC(=O)N1CCC(Oc2cc(N3CCc4cc(S(C)(=O)=O)ccc43)ncn2)C(F)C1` (racemic) [Example 15, tert-Butyl 3-fluoro-4-({6-[5-(methylsulfonyl)-2,3-dihydro-1H-indol-1-yl]pyrimidin-4-yl}oxy)piperidine-1-carboxylate], the Ki is 1.72 nM and 6.77 nM and 1.6 nM.

Take `Cc1c(O[C@H]2[C@@H]3COC[C@H]2CN(C(=O)OC2(C)CC2)C3)ncnc1N1CCc2ncccc21` [Example 25, 1-Methylcyclopropyl (9-anti)-9-{[6-(2,3-dihydro-1H-pyrrolo[3,2-b]pyridin-1-yl)-5-methylpyrimidin-4-yl]oxy}-3-oxa-7-azabicyclo[3.3.1]nonane-7-carboxylate]: the Ki was 39 nM and 34.7 nM.

Consider `CC(C)OC(=O)N1CCC(Oc2ncnc(N3CCc4cc(S(C)(=O)=O)ccc43)c2C#N)CC1` [Example 6, Isopropyl 4-({5-cyano-6-[5-(methylsulfonyl)-2,3-dihydro-1H-indol-1-yl]pyrimidin-4-yl}oxy)piperidine-1-carboxylate], for which the Ki is 1.87 nM and 5.02 nM.

`Cc1c(O[C@H]2[C@@H]3COC[C@H]2CN(C(=O)OC(C)C)C3)ncnc1N1CCc2ncccc21` [Example 22, Isopropyl (9-anti)-9-{[6-(2,3-dihydro-1H-pyrrolo[3,2-b]pyridin-1-yl)-5-methylpyrimidin-4-yl]oxy}-3-oxa-7-azabicyclo[3.3.1]nonane-7-carboxylate]: the Ki is 66.6 nM and 79.3 nM and 53 nM and 96.4 nM.

Consider `Cc1c(OC2CCN(C(=O)OC(C)C)CC2)ncnc1N1CCc2ncccc21` [Example 13, Isopropyl 4-{[6-(2,3-dihydro-1H-pyrrolo[3,2-b]pyridin-1-yl)-5-methylpyrimidin-4-yl]oxy}-piperidine-1-carboxylate], for which the inhibition constant (Ki) is 55.3 nM and 16 nM and 91.1 nM and 23.8 nM.

As to `CC(C)OC(=O)N1CCC(Oc2cc(N3CCc4cc(C#N)ccc43)ncn2)CC1` [Example 10, Isopropyl 4-{[6-(5-cyano-2,3-dihydro-1H-indol-1-yl)pyrimidin-4-yl]oxy}piperidine-1-carboxylate], the Ki is 232 nM.

As to `Cc1c(O[C@@H]2[C@@H]3COC[C@H]2CN(C(=O)OC(C)C)C3)ncnc1N1CCc2ncccc21` [Example 29, Isopropyl (9-syn)-9-{[6-(2,3-dihydro-1H-pyrrolo[3,2-b]pyridin-1-yl)-5-methylpyrimidin-4-yl]oxy}-3-oxa-7-azabicyclo[3.3.1]nonane-7-carboxylate], the Ki was 73.8 nM.

Consider `CC(C)OC(=O)N1CCC(Oc2cc(N3CCc4cc(S(=O)(=O)CCO)ccc43)ncn2)CC1` [Example 11, Isopropyl 4-[(6-{5-[(2-hydroxyethyl)sulfonyl]-2,3-dihydro-1H-indol-1-yl}pyrimidin-4-yl)oxy]piperidine-1-carboxylate], for which the Ki is 72.8 nM.

As to `CC(C)OC(=O)N1CCC(Oc2cc(N3CCc4ncccc43)ncn2)CC1` [Example 12, Isopropyl 4-{[6-(2,3-dihydro-1H-pyrrolo[3,2-b]pyridin-1-yl)pyrimidin-4-yl]oxy}piperidine-1-carboxylate], the Ki is 6100 nM and 1350 nM and 2910 nM.

`Cc1c(O[C@H]2CCN(C(=O)OC(C)(C)C)C[C@H]2F)ncnc1N1CCc2ncccc21` (racemic) [Example 16, tert-Butyl (3R,4S)-4-{[6-(2,3-dihydro-1H-pyrrolo[3,2-b]pyridin-1-yl)-5-methylpyrimidin-4-yl]oxy}-3-fluoropiperidine-1-carboxylate (racemic)]: the Ki was 1.48 nM and 2.12 nM.

`Cc1c(O[C@H]2CCN(C(=O)OC3(C)CC3)C[C@H]2F)ncnc1N1CCc2ncccc21` [Example 17, 1-Methylcyclopropyl (3R,4S)-4-{[6-(2,3-dihydro-1H-pyrrolo[3,2-b]pyridin-1-yl)-5-methylpyrimidin-4-yl]oxy}-3-fluoropiperidine-1-carboxylate]: the Ki is 2 nM and 5.04 nM and 2.43 nM and 4.23 nM and 1.7 nM and 5.67 nM and 13.8 nM and 11.9 nM and 2.45 nM and 6.9 nM.
